We go through 7 compounds from patent US10005735B2, “Inhibitors of RPN11” (California Institute of Technology, priority 2015, dated 2018).

The test system of one assay is Ub^G76V-GFP. As to the kind of experiment: Reporter degradation assay in Hela cells expressing Ub^G76V-GFP. The assay is classed as cell-based. Particulars: after MG132 removal, cycloheximide chase. As for the experimental part: Characterization of the Compound Activity in Cells. […] After 4 hours, MG132 was removed and a cycloheximide (CHX) chase was initiated +/− different concentrations of test compound and the rate of reporter degradation was evaluated by monitoring GFP fluorescence by high throughput microscopy. The rate of fluorescence decrease was normalized to DMSO control and analyzed using does-response equation.

The target of a further assay is Csn5 (Homo sapiens (Human), UniProt Q92905). In words: Csn5 activity assay (fluorescence polarization, SCF^skp2-Nedd8OG, COP9 Signalosome Complex). The class given is biochemical. Particulars: Table 2. The procedure:
Csn5 Activity Assay. […] In brief, a fluorescent substrate termed SCF^skp2-Nedd8OG was produced to measure CSN5 activity in vitro. This assay measures the decrease in fluorescence polarization due to the decrease in apparent molecular weight of Oregon Green (OG) fluorophore (from the ˜175 kDa substrate to ˜9 kDa Nedd8OG) as a result of Csn5-mediated cleavage of the isopeptide bond that links Nedd8OG to SCF^Skp2. The assay was performed in a low-volume 384 well solid black plate comprising equal volumes of compound, substrate (SCF^skp2-Need8OG) and enzyme (purified COP9 Signalosome Complex, CSN). Fluorescence polarization was recorded using the same setting as for the Rpn11 activity assay.

The target of a further assay is AMSH (Homo sapiens (Human), UniProt O95630). As to the kind of experiment: AMSH activity assay (DiUb^K63TAMRA cleavage, fluorescence). The assay is classed as biochemical. Conditions: Table 2. An excerpt:
AMSH Activity Assay. AMSH is known to selectively cleave ubiquitin chains in which the ubiquitins are joined via K63 of the proximal ubiquitin linked by an isopeptide bond to the carboxy terminus of the distal ubiquitin. […] In brief, DiUb^K63TAMRA was labeled with quench pairs TAMRA/QXL.

Assay [1] has as its target T1, Rpn11 (Homo sapiens (Human), UniProt O00487). In words: Rpn11 activity assay (fluorescence polarization, Ub4-pepOG cleavage by 26S proteasome). Particulars: Table 2; 1 mM DTT in assay reduces disulfides to monomeric active species. The class given is biochemical. An excerpt:
Candidate compounds according to embodiments of the present invention were synthesized as described herein. […] In brief, this Rpn11 bioassay employs a fluorescent polarization readout based on the ability of the 26S proteasome to cleave the protein substrate including four tandem ubiquitin proteins fused to a peptide having a unique cysteine labeled with a fluorophore. Cleavage of this substrate by Rpn11 at the junction between the fourth ubiquitin and the peptide, releases the low molecular weight fluorescent peptide. Accordingly, inhibition of fluorescence correlates with inhibition of Rpn11. Inhibition is reported as the half maximal inhibitory concentration (IC50) for the candidate compound.
Rpn11 Activity Assay. […] In brief, in order to measure the Rpn11 activity, a synthetic peptide substrate, termed Ub4-pepOG, was engineered. […] Peptide substrate Ub4-pepOG consists of only 30 amino acids and therefore the decrease of polarization is mainly from deubiquitination but not the proteolysis of the peptide. Fluorescence polarization assay was performed in a low-volume 384 well solid black plate where the components are added in the follow sequence: 1) 5 μl compound in 3% DMSO or 3% DMSO control 2) 5 μl 26S proteasome (Enzo Life Sciences Inc, NY). […] Fluorescence polarization is measured using a PHERAstar (BMG labtech, Ortenberg, Germany) plate reader with excitation of 480 nm and emission of 520 nm filter set. […] Rpn11 activity was normalized to DMSO control and fitted using does-response curve.
(In general: Polarisation of emitted light reports the rotation of a fluorescent probe.)

Assay [2] deals with T1, Rpn11. The assay is described as above. The class given is biochemical. Conditions: does not inhibit Csn5 or AMSH with the same potency as Rpn11.

The structures appear in SMILES notation.

T1 sequence (O00487 whole entry, looked up, the tested form may be a part): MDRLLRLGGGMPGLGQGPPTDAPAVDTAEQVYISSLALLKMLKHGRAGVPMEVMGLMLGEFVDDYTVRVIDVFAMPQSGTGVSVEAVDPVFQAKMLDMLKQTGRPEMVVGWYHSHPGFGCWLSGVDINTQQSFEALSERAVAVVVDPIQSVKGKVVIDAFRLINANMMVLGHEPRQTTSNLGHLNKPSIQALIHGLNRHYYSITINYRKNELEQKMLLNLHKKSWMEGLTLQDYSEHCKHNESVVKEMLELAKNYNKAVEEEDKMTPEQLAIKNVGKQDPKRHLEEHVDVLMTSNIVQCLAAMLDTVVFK
Sequence of AMSH (O95630 whole entry): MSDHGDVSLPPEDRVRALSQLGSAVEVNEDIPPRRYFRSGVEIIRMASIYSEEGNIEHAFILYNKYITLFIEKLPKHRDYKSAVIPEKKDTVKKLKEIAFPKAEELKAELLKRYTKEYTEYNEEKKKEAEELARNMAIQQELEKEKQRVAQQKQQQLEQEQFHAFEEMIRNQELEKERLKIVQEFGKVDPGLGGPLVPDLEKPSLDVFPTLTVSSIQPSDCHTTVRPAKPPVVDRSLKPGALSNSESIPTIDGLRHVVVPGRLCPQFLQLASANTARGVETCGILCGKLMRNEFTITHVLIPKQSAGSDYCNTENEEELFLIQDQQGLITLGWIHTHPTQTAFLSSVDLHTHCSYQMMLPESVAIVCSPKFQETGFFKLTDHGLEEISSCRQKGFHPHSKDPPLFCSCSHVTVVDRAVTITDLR

As for `NC(=O)c1cnc2c(SSc3cccc4cc(C(N)=O)cnc34)cccc2c1` [Compound 1, 8,8′-Disulfanediylbis(quinoline-3-carboxamide)], the IC50 (in general, the midpoint of a concentration-inhibition curve) in the assay with Ub^G76V-GFP (Homo sapiens) was 1200 nM; at Csn5 it was 15000 nM; on AMSH it was 1200 nM; against Rpn11 [1], 1000 nM. At Rpn11 [2], the “specificity for Rpn11 versus Csn5 and/or AMSH (in words)” value is recorded as “specific inhibitors of Rpn11”.
In the case of `O=C(NCc1ccncc1)c1cnc2c(SSc3cccc4cc(C(=O)NCc5ccncc5)cnc34)cccc2c1` [Compound 15, 8,8′-Disulfanediylbis(N-(pyridin-4-ylmethyl)quinoline-3-carboxamide)], the IC50 in the assay with Ub^G76V-GFP was more than 10000 nM; at Csn5, 7000 nM; against AMSH it was 500 nM; against Rpn11 [1], 200 nM. For the same compound, the “specificity for Rpn11 versus Csn5 and/or AMSH (in words)” value on Rpn11 [2] is given as “specific inhibitors of Rpn11”.
Consider `O=C(NCc1ccc(F)cc1)c1cnc2c(SSc3cccc4cc(C(=O)NCc5ccc(F)cc5)cnc34)cccc2c1` [Compound 17, 8,8′-Disulfanediylbis(N-(4-fluorobenzyl)quinoline-3-carboxamide)], for which the values for the IC50 in the assay with Ub^G76V-GFP (Homo sapiens), against Csn5 and at AMSH were more than 10000 nM, 18000 nM and 850 nM, respectively. The “specificity for Rpn11 versus Csn5 and/or AMSH (in words)” value at Rpn11 [2] is given as “specific inhibitors of Rpn11”.
In the case of `O=C(NCc1ccc(C(F)(F)F)cc1)c1cnc2c(SSc3cccc4cc(C(=O)NCc5ccc(C(F)(F)F)cc5)cnc34)cccc2c1` [Compound 18, 8,8′-Disulfanediylbis(N-(4-(trifluoromethyl)benzyl)quinoline-3-carboxamide)], the half-inhibitory concentration (IC50) in the assay on Ub^G76V-GFP is more than 10000 nM; at Csn5, more than 100000 nM; against AMSH, 3400 nM; against Rpn11 [1], 700 nM. Further, the “specificity for Rpn11 versus Csn5 and/or AMSH (in words)” value on Rpn11 [2] was “specific inhibitors of Rpn11”.
Take `COc1ccc(CNC(=O)c2cnc3c(SSc4cccc5cc(C(=O)NCc6ccc(OC)cc6)cnc45)cccc3c2)cc1` [Compound 19, 8,8′-Disulfanediylbis(N-(4-methoxybenzyl)quinoline-3-carboxamide)]: the IC50 with Ub^G76V-GFP (Homo sapiens) was more than 10000 nM; on Csn5, 500 nM; on AMSH, 600 nM. In addition, the “specificity for Rpn11 versus Csn5 and/or AMSH (in words)” value on Rpn11 [2] is recorded as “specific inhibitors of Rpn11”.
On to `O=C(NCCc1cccs1)c1ccnc2c(SSc3cccc4c(C(=O)NCCc5cccs5)ccnc34)cccc12` [Compound 24, 8,8′-disulfanediylbis(N-(2-(thiophen-2-yl)ethyl)quinoline-4-carboxamide)], for which the IC50 with Ub^G76V-GFP came out at 1100 nM; on Csn5, 7300 nM; at AMSH it was 1000 nM; on Rpn11 [1] it was 700 nM. Further, the “specificity for Rpn11 versus Csn5 and/or AMSH (in words)” value at Rpn11 [2] is reported as “specific inhibitors of Rpn11”.
On to `O=C(NCCc1ccco1)c1ccnc2c(SSc3cccc4c(C(=O)NCCc5ccco5)ccnc34)cccc12` [Compound 26, 8,8′-disulfanediylbis(N-(2-(furan-2-yl)ethyl)quinoline-4-carboxamide)], for which the IC50 in the assay with Ub^G76V-GFP (Homo sapiens) is 1600 nM; against Csn5, 8000 nM; against AMSH, 2900 nM; against Rpn11 [1] it was 1000 nM. For the same compound, on Rpn11 [2], the “specificity for Rpn11 versus Csn5 and/or AMSH (in words)” value is “specific inhibitors of Rpn11”.
